Measurements from ChEMBL document CHEMBL1201862, “PubChem BioAssay data set” (2004).
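The compound was tested at five concentrations on cells cultured in 96-well plates, with a 48-hour exposure period. GI50 marks 50% less growth.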 Calls of active or inactive are those of the source. No stated cut-off is given here; in the data, active = GI50 up to about 1.1 µM and inactive = higher.

What was measured:
Experiment in all cases: NCI tumour cell line growth inhibition, 48 h
COLO 205 = test system: COLO 205
HCT-116 = test system: HCT-116
HOP-62 = test system: HOP-62
HT-29 = test system: HT-29
M14 = test system: M14
NCI-H226 = test system: NCI-H226
NCI-H23 = test system: NCI-H23
NCI-H522 = test system: NCI-H522
OVCAR-5 = test system: OVCAR-5
RPMI-8226 = test system: RPMI-8226
SF-268 = test system: SF-268
SK-MEL-28 = test system: SK-MEL-28
SK-OV-3 = test system: SK-OV-3
SNB-19 = test system: SNB-19
SNB-75 = test system: SNB-75
SR = test system: SR
TK-10 = test system: TK-10
UACC-62 = test system: UACC-62
MCF7 = test system: MCF7

Measured: GI50

CC1=NN(C(=O)CC(=O)Nc2ccccc2)C(=O)C1/N=N/c1ccc(S(N)(=O)=O)cc1 (configuration not stated)
inactive: COLO 205 > 100 µM | HCT-116 48 µM | HOP-62 88.5 µM | HT-29 > 100 µM | M14 80.2 µM | NCI-H226 39.1 µM | NCI-H23 78 µM | NCI-H522 39 µM | OVCAR-5 > 100 µM | RPMI-8226 84.5 µM | SF-268 80.9 µM | SK-MEL-28 61.4 µM | SK-OV-3 > 100 µM | SNB-19 71.6 µM | SNB-75 60.8 µM | SR 56.9 µM | TK-10 > 100 µM | UACC-62 32.8 µM

CC1(C)O[C@@H](CCl)C[C@@H](C#N)O1
inactive: COLO 205 > 100 µM | HCT-116 > 100 µM | HOP-62 > 100 µM | HT-29 > 100 µM | M14 > 100 µM | NCI-H226 > 100 µM | NCI-H23 > 100 µM | NCI-H522 > 100 µM | OVCAR-5 > 100 µM | RPMI-8226 > 100 µM | SF-268 > 100 µM | SK-MEL-28 > 100 µM | SK-OV-3 > 100 µM | SNB-19 > 100 µM | SNB-75 > 100 µM | SR > 100 µM | TK-10 > 100 µM | UACC-62 > 100 µM

COC(OC)c1cccc2c1C1(O)CCC3(CC21)OCCCCO3 (configuration not stated)
inactive: COLO 205 > 100 µM | HCT-116 > 100 µM | HOP-62 > 100 µM | HT-29 > 100 µM | M14 > 100 µM | NCI-H226 > 100 µM | NCI-H23 > 100 µM | NCI-H522 > 100 µM | OVCAR-5 > 100 µM | RPMI-8226 > 100 µM | SF-268 > 100 µM | SK-MEL-28 > 100 µM | SK-OV-3 > 100 µM | SNB-19 > 100 µM | SNB-75 > 100 µM | SR > 100 µM | TK-10 > 100 µM | UACC-62 > 100 µM

O=C(c1ccccc1)N1CCc2c([nH]c3ccccc23)C1
inactive: COLO 205 19.2 µM | HCT-116 38 µM | HOP-62 91.2 µM | HT-29 72.4 µM | M14 34 µM | NCI-H226 51.8 µM | NCI-H23 33.4 µM | NCI-H522 22 µM | OVCAR-5 > 100 µM | RPMI-8226 23.5 µM | SK-MEL-28 24.8 µM | SK-OV-3 85.3 µM | SNB-19 59.7 µM | SNB-75 66.8 µM | SR 33.1 µM | TK-10 44.3 µM | UACC-62 51.4 µM

BrC1=CC=C2NC=CC3=CC=NC1C32 (configuration not stated)
inactive: COLO 205 21.6 µM | HCT-116 6.03 µM | HOP-62 25.5 µM | HT-29 14.9 µM | M14 18 µM | NCI-H226 14.2 µM | NCI-H23 7.71 µM | NCI-H522 11.5 µM | OVCAR-5 19.1 µM | RPMI-8226 11.4 µM | SF-268 15.5 µM | SK-MEL-28 37.7 µM | SK-OV-3 25.1 µM | SNB-19 8.51 µM | SNB-75 18.3 µM | SR 4.57 µM | TK-10 34.1 µM | UACC-62 9.53 µM

COc1cc(/C=C2\NC(=O)C(Cc3cc(OC)c(OC)c(C)c3OC)N(C(C)=O)C2=O)c(OC)c(C)c1OC (configuration not stated)
inactive: COLO 205 54.7 µM | HCT-116 > 100 µM | HOP-62 > 100 µM | HT-29 > 100 µM | M14 > 100 µM | NCI-H226 59.2 µM | NCI-H23 > 100 µM | NCI-H522 21.8 µM | OVCAR-5 > 100 µM | RPMI-8226 45.6 µM | SF-268 > 100 µM | SK-MEL-28 > 100 µM | SK-OV-3 > 100 µM | SNB-19 > 100 µM | SNB-75 > 100 µM | SR > 100 µM | TK-10 > 100 µM | UACC-62 > 100 µM

CC(=O)Oc1cc2c(=O)oc3c(OC(C)=O)c(OC(C)=O)c(OC(C)=O)c4c(=O)oc(c1OC(C)=O)c2c34
inactive: COLO 205 59 µM | HCT-116 24 µM | HOP-62 > 100 µM | HT-29 37.9 µM | M14 36.6 µM | NCI-H226 43.9 µM | NCI-H23 > 100 µM | NCI-H522 37.4 µM | OVCAR-5 94.6 µM | RPMI-8226 73.8 µM | SF-268 48.4 µM | SK-MEL-28 32.7 µM | SK-OV-3 36.3 µM | SNB-19 73.8 µM | SNB-75 45.9 µM | SR 24.8 µM | TK-10 > 100 µM | UACC-62 33.2 µM

Cc1cccc(C(C)C)c1NC(=O)C(=O)CC(=O)c1c(C)[n+]([O-])c2ccccc2[n+]1[O-]
inactive: COLO 205 33.1 µM | HCT-116 32.1 µM | HOP-62 > 100 µM | HT-29 34.4 µM | M14 27.8 µM | NCI-H226 > 100 µM | NCI-H23 18.8 µM | NCI-H522 21.9 µM | OVCAR-5 45.9 µM | RPMI-8226 22.2 µM | SF-268 30.1 µM | SK-MEL-28 36.1 µM | SK-OV-3 > 100 µM | SNB-19 31.8 µM | SNB-75 28.5 µM | SR 28.2 µM | TK-10 > 100 µM | UACC-62 21.5 µM

Nc1ccc(C(=O)NN2C(=O)C(Cl)C2c2ccccc2Cl)cc1 (configuration not stated)
inactive: COLO 205 14.6 µM | HCT-116 4.21 µM | HOP-62 20.3 µM | HT-29 10.3 µM | M14 13.1 µM | NCI-H226 16.8 µM | NCI-H23 12.3 µM | NCI-H522 1.71 µM | OVCAR-5 15.2 µM | RPMI-8226 6.25 µM | SF-268 3.84 µM | SK-MEL-28 14.8 µM | SK-OV-3 16.1 µM | SNB-19 16.9 µM | SNB-75 16.5 µM | SR 5.45 µM | TK-10 16.5 µM | UACC-62 8.69 µM

CC1(C)OC(=S)N(c2ccccc2)C12C=Cc1cc3ccccc3nc1S2 (configuration not stated)
inactive: COLO 205 84.3 µM | HCT-116 > 100 µM | HOP-62 > 100 µM | HT-29 40.4 µM | M14 > 100 µM | NCI-H226 > 100 µM | NCI-H23 29.6 µM | NCI-H522 32.6 µM | OVCAR-5 > 100 µM | RPMI-8226 33.7 µM | SF-268 > 100 µM | SK-MEL-28 > 100 µM | SK-OV-3 > 100 µM | SNB-19 > 100 µM | SNB-75 97.1 µM | SR 22.4 µM | TK-10 > 100 µM | UACC-62 > 100 µM

Cc1ccc(-c2nnc(-c3nn(-c4ccccc4)c4nc5ccccc5nc34)o2)cc1
inactive: COLO 205 47.2 µM | HCT-116 12 µM | HOP-62 13.5 µM | HT-29 41.7 µM | M14 25.8 µM | NCI-H226 13.2 µM | NCI-H23 14 µM | NCI-H522 17.9 µM | OVCAR-5 > 100 µM | RPMI-8226 8.38 µM | SF-268 11.1 µM | SK-MEL-28 26.6 µM | SK-OV-3 10.8 µM | SNB-19 21.5 µM | SNB-75 4.1 µM | SR 9.73 µM | TK-10 14 µM | UACC-62 14.2 µM

COc1cc(OC)cc(-n2c(N)c(-c3nc4ccccc4s3)c3ccc([N+](=O)[O-])cc3c2=O)c1
inactive: COLO 205 30.4 µM | HCT-116 24.9 µM | HT-29 > 100 µM | MCF7 > 100 µM | NCI-H226 25.7 µM | NCI-H23 77.4 µM | NCI-H522 23.9 µM | RPMI-8226 > 100 µM | SF-268 57 µM | SK-MEL-28 > 100 µM | SK-OV-3 79.6 µM | SNB-19 18.1 µM | SNB-75 27.8 µM | SR 24.3 µM | TK-10 13.3 µM | UACC-62 > 100 µM

CC1(C)C(=NN=C(N)N)C(C)(C)C1=NN=C(N)N
inactive: COLO 205 > 100 µM | HCT-116 > 100 µM | HOP-62 > 10 µM | HT-29 > 100 µM | M14 > 100 µM | NCI-H226 > 100 µM | NCI-H23 > 100 µM | NCI-H522 > 100 µM | OVCAR-5 > 100 µM | RPMI-8226 > 100 µM | SF-268 > 100 µM | SK-MEL-28 > 100 µM | SK-OV-3 > 100 µM | SNB-19 > 100 µM | SNB-75 > 100 µM | SR > 100 µM | TK-10 > 100 µM | UACC-62 > 100 µM

Cn1cnc([N+](=O)[O-])c1SC1=NCCS1
inactive: COLO 205 70 µM | HCT-116 50 µM | HOP-62 > 100 µM | HT-29 > 100 µM | M14 48 µM | NCI-H226 > 100 µM | NCI-H23 81.1 µM | NCI-H522 16.7 µM | OVCAR-5 > 100 µM | RPMI-8226 36.7 µM | SF-268 > 100 µM | SK-MEL-28 55 µM | SK-OV-3 > 100 µM | SNB-19 > 100 µM | SNB-75 > 100 µM | SR 24.5 µM | TK-10 > 100 µM | UACC-62 51.2 µM

CN1/C(=C/C=C/C=C/C=C2C(=O)c3ccccc3C2=O)C(C)(C)c2ccccc21
inactive: COLO 205 26.6 µM | HCT-116 > 100 µM | HOP-62 > 100 µM | HT-29 > 100 µM | M14 37.5 µM | MCF7 31.3 µM | NCI-H226 51.9 µM | NCI-H23 41 µM | NCI-H522 28.6 µM | OVCAR-5 33 µM | RPMI-8226 6.55 µM | SF-268 43.3 µM | SK-OV-3 39.4 µM | SNB-19 > 100 µM | SNB-75 48.6 µM | SR > 100 µM | TK-10 > 100 µM | UACC-62 17.7 µM
